# PubChem BioAssay (NCI)
#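 96-well plates; 48 h exposure; 5 concentrations. Endpoints by linear interpolation between flanking doses. Not reached: highest tested concentration assigned. TGI is the concentration that stops growth completely.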
# Experiments:
# Test in all cases: NCI tumour cell line growth inhibition, 48 h
# RXF 393 renal = system: RXF 393 renal
# HCT-116 colon = system: HCT-116 colon
# SW-620 colon = system: SW-620 colon
# KM12 colon = system: KM12 colon
# HT29 colon = system: HT29 colon
# HOP-62 NSCLC = system: HOP-62 NSCLC
# RXF-631 renal = system: RXF-631 renal
# SN12C renal = system: SN12C renal
# OVCAR-5 ovarian = system: OVCAR-5 ovarian
# U251 CNS = system: U251 CNS
# LOX IMVI melanoma = system: LOX IMVI melanoma
# OVCAR-8 ovarian = system: OVCAR-8 ovarian
# K-562 leukemia = system: K-562 leukemia
# KM20L2 colon = system: KM20L2 colon
# 786-0 renal = system: 786-0 renal
# XF 498 CNS = system: XF 498 CNS
# OVCAR-4 ovarian = system: OVCAR-4 ovarian
# DLD-1 colon = system: DLD-1 colon
# MALME-3M melanoma = system: MALME-3M melanoma
# MOLT-4 leukemia = system: MOLT-4 leukemia
# NCI-H226 lung = system: NCI-H226 lung
# SK-MEL-28 melanoma = system: SK-MEL-28 melanoma
# A498 renal = system: A498 renal
# UO-31 renal = system: UO-31 renal
# SF-539 CNS = system: SF-539 CNS
# DMS 273 small cell lung = system: DMS 273 small cell lung
# CAKI-1 renal = system: CAKI-1 renal
# HOP-18 NSCLC = system: HOP-18 NSCLC
# HOP-92 NSCLC = system: HOP-92 NSCLC
# M19-MEL melanoma = system: M19-MEL melanoma
# IGROV1 ovarian = system: IGROV1 ovarian
# SK-MEL-5 melanoma = system: SK-MEL-5 melanoma
# M14 melanoma = system: M14 melanoma
# NCI-H460 lung = system: NCI-H460 lung
# ACHN renal = system: ACHN renal
# EKVX NSCLC = system: EKVX NSCLC
# OVCAR-3 ovarian = system: OVCAR-3 ovarian
# SK-OV-3 ovarian = system: SK-OV-3 ovarian
# HCT-15 colon = system: HCT-15 colon
# SNB-78 CNS = system: SNB-78 CNS
# SK-MEL-2 melanoma = system: SK-MEL-2 melanoma
# UACC-257 melanoma = system: UACC-257 melanoma
# A549 NSCLC = system: A549 NSCLC
# NCI-H23 lung = system: NCI-H23 lung
# RPMI-8226 leukemia = system: RPMI-8226 leukemia
# CCRF-CEM leukemia = system: CCRF-CEM leukemia
# SF-268 CNS = system: SF-268 CNS
# HL-60(TB) leukemia = system: HL-60(TB) leukemia
# NCI-H522 lung = system: NCI-H522 lung
# SR leukemia = system: SR leukemia
# COLO 205 colon = system: COLO 205 colon
# SNB-75 CNS = system: SNB-75 CNS
# UACC-62 melanoma = system: UACC-62 melanoma
# TK-10 renal = system: TK-10 renal
# SNB-19 CNS = system: SNB-19 CNS
# LXFL 529 NSCLC = system: LXFL 529 NSCLC
# SF-295 CNS = system: SF-295 CNS
# HS 578T breast = system: HS 578T breast
# MDA-MB-435 = system: MDA-MB-435
# DU-145 prostate = system: DU-145 prostate
# T-47D breast = system: T-47D breast
# PC-3 prostate = system: PC-3 prostate
# MDA-N = system: MDA-N
# MCF7 breast = system: MCF7 breast
# HCC-2998 colon = system: HCC-2998 colon
# DMS 114 small cell lung = system: DMS 114 small cell lung
# NCI/ADR-RES ovarian = system: NCI/ADR-RES ovarian
# BT-549 breast = system: BT-549 breast
smiles,measurement,setting,value
O=[N+]([O-])c1ccc(C2N3CCCCC3[C@H]3CCCCN23)cc1 (some centres undefined),TGI,RXF 393 renal,> 100 µM
same,TGI,HCT-116 colon,> 100 µM
same,TGI,SW-620 colon,> 100 µM
same,TGI,KM12 colon,> 100 µM
same,TGI,HT29 colon,> 100 µM
same,TGI,HOP-62 NSCLC,> 100 µM
same,TGI,RXF-631 renal,> 100 µM
same,TGI,SN12C renal,> 100 µM
same,TGI,OVCAR-5 ovarian,> 100 µM
same,TGI,U251 CNS,> 100 µM
same,TGI,LOX IMVI melanoma,> 100 µM
same,TGI,OVCAR-8 ovarian,> 100 µM
same,TGI,K-562 leukemia,> 100 µM
same,TGI,KM20L2 colon,> 100 µM
same,TGI,786-0 renal,> 100 µM
same,TGI,XF 498 CNS,> 100 µM
same,TGI,OVCAR-4 ovarian,> 100 µM
same,TGI,DLD-1 colon,> 100 µM
same,TGI,MALME-3M melanoma,> 100 µM
same,TGI,MOLT-4 leukemia,> 100 µM
same,TGI,NCI-H226 lung,> 100 µM
same,TGI,SK-MEL-28 melanoma,> 100 µM
same,TGI,A498 renal,> 100 µM
same,TGI,UO-31 renal,> 100 µM
same,TGI,SF-539 CNS,> 100 µM
same,TGI,DMS 273 small cell lung,> 100 µM
same,TGI,CAKI-1 renal,> 100 µM
same,TGI,HOP-18 NSCLC,> 100 µM
same,TGI,HOP-92 NSCLC,> 100 µM
same,TGI,M19-MEL melanoma,> 100 µM
same,TGI,IGROV1 ovarian,> 100 µM
same,TGI,SK-MEL-5 melanoma,> 100 µM
same,TGI,M14 melanoma,> 100 µM
same,TGI,NCI-H460 lung,> 100 µM
same,TGI,ACHN renal,> 100 µM
same,TGI,EKVX NSCLC,> 100 µM
same,TGI,OVCAR-3 ovarian,> 100 µM
same,TGI,SK-OV-3 ovarian,> 100 µM
same,TGI,HCT-15 colon,> 100 µM
same,TGI,SNB-78 CNS,> 100 µM
same,TGI,SK-MEL-2 melanoma,> 100 µM
same,TGI,UACC-257 melanoma,> 100 µM
same,TGI,A549 NSCLC,> 100 µM
same,TGI,NCI-H23 lung,> 100 µM
same,TGI,RPMI-8226 leukemia,> 100 µM
same,TGI,CCRF-CEM leukemia,> 100 µM
same,TGI,SF-268 CNS,> 100 µM
same,TGI,HL-60(TB) leukemia,> 100 µM
same,TGI,NCI-H522 lung,> 100 µM
same,TGI,SR leukemia,> 100 µM
same,TGI,COLO 205 colon,> 100 µM
same,TGI,SNB-75 CNS,> 100 µM
same,TGI,UACC-62 melanoma,> 100 µM
same,TGI,TK-10 renal,> 100 µM
same,TGI,SNB-19 CNS,> 100 µM
same,TGI,LXFL 529 NSCLC,> 100 µM
same,TGI,SF-295 CNS,> 100 µM
CCOC(=O)NC(=O)c1cn(CCCOC(=O)CCCCCCCCC(=O)OCCCn2cc(C(=O)NC(=O)OCC)c(=O)n(C)c2=O)c(=O)n(C)c1=O,TGI,RXF 393 renal,> 100 µM
same,TGI,HCT-116 colon,> 100 µM
same,TGI,SW-620 colon,> 100 µM
same,TGI,HS 578T breast,> 100 µM
same,TGI,KM12 colon,> 100 µM
same,TGI,HT29 colon,> 100 µM
same,TGI,HOP-62 NSCLC,> 96.6 µM
same,TGI,RXF-631 renal,> 100 µM
same,TGI,SN12C renal,> 100 µM
same,TGI,OVCAR-5 ovarian,> 100 µM
same,TGI,U251 CNS,> 100 µM
same,TGI,LOX IMVI melanoma,> 100 µM
same,TGI,MDA-MB-435,> 100 µM
same,TGI,OVCAR-8 ovarian,> 100 µM
same,TGI,K-562 leukemia,> 100 µM
same,TGI,KM20L2 colon,> 100 µM
same,TGI,786-0 renal,> 100 µM
same,TGI,XF 498 CNS,> 93.8 µM
same,TGI,OVCAR-4 ovarian,> 100 µM
same,TGI,DU-145 prostate,> 100 µM
same,TGI,DLD-1 colon,> 100 µM
same,TGI,MALME-3M melanoma,> 100 µM
same,TGI,T-47D breast,> 100 µM
same,TGI,PC-3 prostate,> 100 µM
same,TGI,MOLT-4 leukemia,> 100 µM
same,TGI,NCI-H226 lung,> 100 µM
same,TGI,MDA-N,> 100 µM
same,TGI,SK-MEL-28 melanoma,> 100 µM
same,TGI,A498 renal,> 100 µM
same,TGI,UO-31 renal,> 100 µM
same,TGI,SF-539 CNS,> 100 µM
same,TGI,DMS 273 small cell lung,> 100 µM
same,TGI,MCF7 breast,> 100 µM
same,TGI,CAKI-1 renal,> 100 µM
same,TGI,HOP-18 NSCLC,> 100 µM
same,TGI,HOP-92 NSCLC,> 100 µM
same,TGI,M19-MEL melanoma,> 100 µM
same,TGI,IGROV1 ovarian,> 100 µM
same,TGI,SK-MEL-5 melanoma,> 100 µM
same,TGI,M14 melanoma,> 100 µM
same,TGI,HCC-2998 colon,> 100 µM
same,TGI,NCI-H460 lung,> 100 µM
same,TGI,ACHN renal,> 100 µM
same,TGI,EKVX NSCLC,> 100 µM
same,TGI,OVCAR-3 ovarian,> 100 µM
same,TGI,SK-OV-3 ovarian,> 100 µM
same,TGI,HCT-15 colon,> 100 µM
same,TGI,SK-MEL-2 melanoma,> 100 µM
same,TGI,UACC-257 melanoma,> 100 µM
same,TGI,A549 NSCLC,> 100 µM
same,TGI,NCI-H23 lung,> 100 µM
same,TGI,RPMI-8226 leukemia,> 100 µM
same,TGI,CCRF-CEM leukemia,> 46.4 µM
same,TGI,DMS 114 small cell lung,> 100 µM
same,TGI,SF-268 CNS,> 100 µM
same,TGI,HL-60(TB) leukemia,> 100 µM
same,TGI,NCI/ADR-RES ovarian,> 100 µM
same,TGI,NCI-H522 lung,> 100 µM
same,TGI,SR leukemia,> 100 µM
same,TGI,COLO 205 colon,> 100 µM
same,TGI,SNB-75 CNS,> 77.8 µM
same,TGI,UACC-62 melanoma,> 100 µM
same,TGI,TK-10 renal,> 100 µM
same,TGI,SNB-19 CNS,> 100 µM
same,TGI,BT-549 breast,> 100 µM
same,TGI,LXFL 529 NSCLC,> 100 µM
same,TGI,SF-295 CNS,> 100 µM
